Data from US10258602B2 (Ocera Therapeutics, Inc., priority 2007, dated 2019).
Read-outs that look alike come from different tables or passages of the source.

Key:
CYP2B6 = molecular target: T1, CYP2B6 (Homo sapiens, UniProt P20813); assay: Cytochrome P450 inhibition, CYP2B6; type: in vitro ADME; settings: read-out: IC50 2B6
T1 construct: purchased BD Gentest, Becton-Dickinson (Supersomes); host or cells: insect cells
T1 sequence (P20813 1-491): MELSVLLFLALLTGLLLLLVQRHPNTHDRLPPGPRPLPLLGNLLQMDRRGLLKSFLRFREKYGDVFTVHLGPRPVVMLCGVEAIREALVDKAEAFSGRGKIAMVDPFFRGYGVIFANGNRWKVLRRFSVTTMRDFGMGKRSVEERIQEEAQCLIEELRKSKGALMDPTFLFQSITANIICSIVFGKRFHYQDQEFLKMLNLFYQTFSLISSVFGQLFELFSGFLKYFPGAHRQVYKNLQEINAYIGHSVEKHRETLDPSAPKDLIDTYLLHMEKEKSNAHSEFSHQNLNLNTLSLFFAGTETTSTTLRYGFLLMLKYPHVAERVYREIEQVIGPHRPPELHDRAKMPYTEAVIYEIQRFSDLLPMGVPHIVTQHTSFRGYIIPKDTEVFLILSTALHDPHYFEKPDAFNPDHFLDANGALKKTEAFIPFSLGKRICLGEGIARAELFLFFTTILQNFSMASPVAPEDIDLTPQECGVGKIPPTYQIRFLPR
Description: (§1) K. Assay for Cytochrome P450 Inhibition
(§2) Cytochrome P450 enzymes are implicated in the phase I metabolism of drugs. The majority of drug-drug interactions are metabolism-based and, moreover, these interactions typically involve inhibition of cytochrome P450s. Six CYP450 enzymes (CYP1A2, CYP2C8, CYP2C9, CYP2C19, CYP2D6 and CYP3A4) appear to be commonly responsible for the metabolism of most drugs and the associated drug-drug interactions. Assays to determine the binding of compounds of the invention to the various metabolically important isoforms of cytochrome P450 metabolizing enzymes are commercially available, for example NoAb BioDiscoveries (Mississaugua, ON, Canada) and Absorption Systems (Exton, Pa., USA). As well, a number of appropriate methods have been described or reviewed in the literature. (White, R. E. Ann. Rev. Pharmacol. Toxicol. 2000, 40, 133-157; Li, A. P. Drug. Disc. Today 2001, 6, 357-366; Turpeinen, M.; Korhonen, L. E. Tolonen, A.; et al. Eur. J. Pharm. Sci, 2006, 29, 130-138.)
(§3) The key aspects of the experimental method were as follows: • 1. […] Assays monitored, via fluorescence detection, the formation of a fluorescent metabolite following incubation of the microsomes with a specific CYP substrate. • 3. Compounds of the present invention were tested in duplicate samples at eight test concentrations using 3-fold serial dilutions (concentration range of 0.0457 to 100 μM). • 4. For each CYP-450 enzyme, a specific inhibitor was tested in duplicate at eight concentrations as a positive control. • 5. The concentration of the inhibitor or test compound that inhibited metabolite formation by 50% (IC50) was calculated by non-linear regression analysis of the % inhibition vs. log concentration (M) curve.

CYP2C8 = molecular target: T2, CYP2C8 (Homo sapiens, UniProt P10632); assay: Cytochrome P450 inhibition, CYP2C8; type: in vitro ADME; settings: read-out: IC50 2C8
T2 construct: purchased BD Gentest, Becton-Dickinson (Supersomes); host or cells: insect cells
T2 sequence (P10632 1-490): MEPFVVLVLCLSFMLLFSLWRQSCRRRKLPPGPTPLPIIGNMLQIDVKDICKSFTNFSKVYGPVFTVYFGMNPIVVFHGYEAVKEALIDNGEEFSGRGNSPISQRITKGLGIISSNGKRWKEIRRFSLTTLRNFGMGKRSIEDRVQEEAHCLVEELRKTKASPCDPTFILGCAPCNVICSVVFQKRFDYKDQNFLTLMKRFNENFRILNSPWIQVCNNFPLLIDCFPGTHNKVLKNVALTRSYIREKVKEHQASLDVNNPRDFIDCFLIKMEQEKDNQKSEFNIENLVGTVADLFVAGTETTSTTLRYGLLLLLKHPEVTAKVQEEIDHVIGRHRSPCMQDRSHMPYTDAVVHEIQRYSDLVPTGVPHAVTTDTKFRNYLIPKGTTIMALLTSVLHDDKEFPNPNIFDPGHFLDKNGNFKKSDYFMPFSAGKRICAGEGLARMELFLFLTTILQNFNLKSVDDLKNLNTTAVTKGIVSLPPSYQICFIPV
Description: as §1, §2, §3

rat plasma = assay: Plasma protein binding, rat plasma; type: in vitro ADME
CYP3A4 = molecular target: T3, CYP3A4 (Homo sapiens, UniProt P08684); assay: Cytochrome P450 inhibition, CYP3A4 (two substrates); type: in vitro ADME
T3 construct: purchased BD Gentest, Becton-Dickinson (Supersomes); host or cells: insect cells
Description: as §1, §2, §3

[1] = Pharmacokinetic analysis (oral bioavailability, elimination half-life) in the rat; type: in vivo; settings: oral administration, HPLC-MS
In short: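 Rat, oral dosing at 8 mg/kg (one compound at 2 mg/kg). Plasma levels by HPLC-MS, giving oral bioavailability and elimination half-life.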

[2] = CYP3A4, substrate BQ, read-out: IC50 3A4 (BQ)
[3] = CYP3A4, substrate BFC, read-out: IC50 3A4 (BFC)

T3 sequence (P08684 whole entry): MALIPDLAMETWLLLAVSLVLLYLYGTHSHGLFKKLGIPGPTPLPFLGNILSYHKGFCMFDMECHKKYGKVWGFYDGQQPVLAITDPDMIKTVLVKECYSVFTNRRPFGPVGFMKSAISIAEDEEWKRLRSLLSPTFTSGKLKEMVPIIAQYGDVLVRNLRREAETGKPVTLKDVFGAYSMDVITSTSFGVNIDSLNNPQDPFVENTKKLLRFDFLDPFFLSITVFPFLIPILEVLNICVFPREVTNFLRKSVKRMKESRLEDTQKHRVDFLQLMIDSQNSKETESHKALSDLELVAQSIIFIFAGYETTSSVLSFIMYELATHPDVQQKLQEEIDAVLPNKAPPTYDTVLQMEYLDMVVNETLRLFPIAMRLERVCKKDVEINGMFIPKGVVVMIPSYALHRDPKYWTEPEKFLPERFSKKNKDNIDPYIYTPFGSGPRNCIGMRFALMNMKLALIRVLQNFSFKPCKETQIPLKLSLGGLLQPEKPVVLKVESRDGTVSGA

IC50 (CYP2B6) [µM]	IC50 (CYP2C8) [µM]	IC50 (CYP3A4; [2]) [µM]	Rat Plasma Protein Binding (%) (rat plasma; test concentration 5 μg/mL)	IC50 (CYP3A4; [3]) [µM]	half-life ([1]; plasma, 8 mg/kg dose, read-out: Elimination Half-life (t1/2, rat, min)) [min]	Elimination Half-life (t1/2, rat, min) ([1]; 2 mg/kg dose (compound 822)) [min]	Oral Bioavailability (rat, % F) ([1]; 2 mg/kg dose (compound 822)) [% F]	SMILES	Rat Plasma Protein Binding (%) (rat plasma; test concentration 1 μg/mL)	Elimination Half-life (t1/2, rat, min) ([1]; 8 mg/kg dose) [min]	Oral Bioavailability (rat, % F) ([1]; 8 mg/kg dose) [% F]	Rat Plasma Protein Binding (%) (rat plasma; test concentration 3 μg/mL)
> 100	> 100	6.7	73	93.4				CC(C)CC1NC(=O)C(C)N(C)C(=O)C(C2CC2)NCC(C)OC2CCCCC2CCCNC1=O (mixture of isomers) [Compound 825]	96.6	101	37	
> 100	> 100	6.1		23.3	197			CC(C)C[C@H]1NC(=O)[C@@H](C)N(C)C(=O)[C@H](C2CC2)NC[C@@H](C)Oc2ccccc2CC[C@H](C)NC1=O [Compound 807]			23	
> 100	> 100	4.15		14.2		65	51	CC(C)C[C@H]1NC(=O)[C@@H](C)N(C)C(=O)[C@H](C2CC2)NCCOc2cc(F)ccc2CC[C@H](C)NC1=O [Compound 822]				99.1
102	> 100	1.08		7.42				CC(C)C[C@H]1NC(=O)[C@@H](C)N(C)C(=O)[C@H](C2CC2)NCCOc2cc(F)ccc2CCCNC1=O [Compound 810]		116	15	
> 100	> 100	8.9		18.7				CC(C)CC1NC(=O)C(C)N(C)C(=O)C(C2CCCCC2)NCC(C)OC2CCCCC2CCCNC1=O (mixture of isomers) [Compound 828]				

SMILES	IC50 (CYP2B6) [µM]	IC50 (CYP2C8) [µM]	IC50 (CYP3A4; [2]) [µM]	Rat Plasma Protein Binding (%) (rat plasma; test concentration 5 μg/mL)	IC50 (CYP3A4; [3]) [µM]	half-life ([1]; plasma, 8 mg/kg dose, read-out: Elimination Half-life (t1/2, rat, min)) [min]	Elimination Half-life (t1/2, rat, min) ([1]; 2 mg/kg dose (compound 822)) [min]	Oral Bioavailability (rat, % F) ([1]; 2 mg/kg dose (compound 822)) [% F]	Rat Plasma Protein Binding (%) (rat plasma; test concentration 1 μg/mL)	Elimination Half-life (t1/2, rat, min) ([1]; 8 mg/kg dose) [min]	Oral Bioavailability (rat, % F) ([1]; 8 mg/kg dose) [% F]	Rat Plasma Protein Binding (%) (rat plasma; test concentration 3 μg/mL)
C[C@@H]1C(=O)N[C@H](Cc2ccc(O)cc2)C(=O)NCCCc2cccc3c2O[C@H](CC3)CN[C@@H](C2CC2)C(=O)N1C [Compound 803]	53.6	54.6	11.5						99.1	151	9	
CC1CNC(C2CC2)C(=O)N(C)C(C)C(=O)NC(Cc2ccc(O)cc2)C(=O)NCCCC2CCCCC2O1 (mixture of isomers) [Compound 826]	> 100	> 100	4.5		47.5					77	29	97.2
C[C@@H]1C(=O)N[C@H](Cc2ccc(O)cc2)C(=O)NCCCc2ccc(F)cc2OCCN[C@@H](C2CC2)C(=O)N1C [Compound 809]	> 100	> 100	1.53		6.61							92.8
CC1NC(C2CC2)C(=O)N(C)C(C)C(=O)NC(Cc2ccc(O)cc2)C(=O)NCCCc2ccccc2OC1C (centres unmarked) [Compound 820]	> 100	> 100	13.8		47.4					137	18	98.8
